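Values below derive from 48-hour exposures of cells grown in 96-well plates, with endpoints linearly interpolated between the two concentrations bracketing the appropriate inhibition level. Here, GI50 denotes the concentration required for 50% inhibition of growth.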 The source made the active and inactive calls. No stated cut-off is given here; in the data, active = GI50 up to about 1.1 µM and inactive = higher.
Tests used:
Test in all cases: DTP human tumour cell line panel, 48 h
786-0 = test system: 786-0
A498 = test system: A498
A549 = test system: A549
ACHN = test system: ACHN
BT-549 = test system: BT-549
CAKI-1 = test system: CAKI-1
CCRF-CEM = test system: CCRF-CEM
COLO 205 = test system: COLO 205
DU-145 = test system: DU-145
EKVX = test system: EKVX
HCC 2998 = test system: HCC 2998
HCT-116 = test system: HCT-116
HCT-15 = test system: HCT-15
HL-60 = test system: HL-60
HOP-62 = test system: HOP-62
HOP-92 = test system: HOP-92
HT-29 = test system: HT-29
Hs-578T = test system: Hs-578T
IGROV-1 = test system: IGROV-1
K562 = test system: K562
KM12 = test system: KM12
LOX IMVI = test system: LOX IMVI
M14 = test system: M14
MCF7 = test system: MCF7
MDA-MB-231 = test system: MDA-MB-231
MDA-MB-435 = test system: MDA-MB-435
MDA-N = test system: MDA-N
MOLT-4 = test system: MOLT-4
Malme-3M = test system: Malme-3M
NCI-H226 = test system: NCI-H226
NCI-H23 = test system: NCI-H23
NCI-H460 = test system: NCI-H460
NCI-H522 = test system: NCI-H522
NCI/ADR-RES = test system: NCI/ADR-RES
OVCAR-3 = test system: OVCAR-3
OVCAR-4 = test system: OVCAR-4
OVCAR-5 = test system: OVCAR-5
OVCAR-8 = test system: OVCAR-8
PC-3 = test system: PC-3
RPMI-8226 = test system: RPMI-8226
RXF 393 = test system: RXF 393
SF-268 = test system: SF-268
SF-295 = test system: SF-295
SF-539 = test system: SF-539
SK-MEL-28 = test system: SK-MEL-28
SK-MEL-2 = test system: SK-MEL-2
SK-MEL-5 = test system: SK-MEL-5
SK-OV-3 = test system: SK-OV-3
SN12C = test system: SN12C
SNB-19 = test system: SNB-19
SNB-75 = test system: SNB-75
SR = test system: SR
SW-620 = test system: SW-620
T47D = test system: T47D
TK-10 = test system: TK-10
U-251 = test system: U-251
UACC-257 = test system: UACC-257
UACC-62 = test system: UACC-62
UO-31 = test system: UO-31
LXFL 529 = test system: LXFL 529

NCCCCC(N)C(=O)NCCNc1ccc(NCCNC(=O)C(N)CCCCN)c2c1C(=O)c1ccccc1C2=O (centres undefined)
GI50 (786-0): 7.41 µM (inactive)
GI50 (A498): 46.5 µM (inactive)
GI50 (A549): 63 µM (inactive)
GI50 (ACHN): 35.6 µM (inactive)
GI50 (BT-549): 6.78 µM (inactive)
GI50 (CAKI-1): > 84.7 µM (inactive)
GI50 (CCRF-CEM): 31.9 µM (inactive)
GI50 (COLO 205): > 59.8 µM (inactive)
GI50 (DU-145): > 100 µM (inactive)
GI50 (EKVX): > 100 µM (inactive)
GI50 (HCC 2998): 16.4 µM (inactive)
GI50 (HCT-116): 17.3 µM (inactive)
GI50 (HCT-15): > 83.8 µM
GI50 (HL-60): > 95.5 µM (inactive)
GI50 (HOP-62): 9.46 µM (inactive)
GI50 (HOP-92): 5.27 µM (inactive)
GI50 (HT-29): 50.7 µM (inactive)
GI50 (Hs-578T): 8.38 µM (inactive)
GI50 (IGROV-1): > 100 µM (inactive)
GI50 (K562): > 33.4 µM (inactive)
GI50 (KM12): > 81.3 µM (inactive)
GI50 (LOX IMVI): 9.35 µM (inactive)
GI50 (M14): > 100 µM (inactive)
GI50 (MCF7): > 100 µM (inactive)
GI50 (MDA-MB-231): 34 µM (inactive)
GI50 (MDA-MB-435): 98.6 µM (inactive)
GI50 (MDA-N): > 100 µM (inactive)
GI50 (MOLT-4): 4.39 µM (inactive)
GI50 (Malme-3M): > 100 µM (inactive)
GI50 (NCI-H226): > 21.7 µM (inactive)
GI50 (NCI-H23): > 65.8 µM (inactive)
GI50 (NCI-H460): 9.06 µM (inactive)
GI50 (NCI-H522): 3.56 µM (inactive)
GI50 (NCI/ADR-RES): 28.2 µM (inactive)
GI50 (OVCAR-3): > 100 µM (inactive)
GI50 (OVCAR-4): > 100 µM (inactive)
GI50 (OVCAR-5): > 74.3 µM (inactive)
GI50 (OVCAR-8): 5.9 µM (inactive)
GI50 (PC-3): 81.1 µM (inactive)
GI50 (RPMI-8226): 31.8 µM (inactive)
GI50 (RXF 393): 9.86 µM (inactive)
GI50 (SF-268): > 100 µM (inactive)
GI50 (SF-295): > 100 µM (inactive)
GI50 (SF-539): 7.62 µM (inactive)
GI50 (SK-MEL-28): > 100 µM (inactive)
GI50 (SK-MEL-2): > 100 µM (inactive)
GI50 (SK-MEL-5): > 100 µM (inactive)
GI50 (SK-OV-3): 34.4 µM (inactive)
GI50 (SN12C): 4.11 µM (inactive)
GI50 (SNB-19): > 36.9 µM (inactive)
GI50 (SNB-75): 43.2 µM (inactive)
GI50 (SR): 4.91 µM (inactive)
GI50 (SW-620): 71.8 µM (inactive)
GI50 (T47D): > 100 µM (inactive)
GI50 (TK-10): > 94.4 µM (inactive)
GI50 (U-251): 35 µM (inactive)
GI50 (UACC-257): > 100 µM (inactive)
GI50 (UACC-62): > 100 µM (inactive)
GI50 (UO-31): 32.3 µM (inactive)

Nc1nc(=S)c2ncn(C3CC(O)C(CO)O3)c2[nH]1 (centres undefined)
GI50 (LXFL 529): > 100 µM (inactive)

Cc1c2cccc-2c(OCCO)cc2c3ccccc3n(C)c12
GI50 (786-0): 3.37 µM (inactive)
GI50 (A498): 7.59 µM (inactive)
GI50 (A549): 3.76 µM (inactive)
GI50 (ACHN): 5.12 µM (inactive)
GI50 (BT-549): 3.45 µM (inactive)
GI50 (CAKI-1): 10.2 µM (inactive)
GI50 (CCRF-CEM): 1.92 µM (inactive)
GI50 (COLO 205): 1.69 µM (inactive)
GI50 (DU-145): 6.79 µM (inactive)
GI50 (EKVX): 2.63 µM (inactive)
GI50 (HCC 2998): 3.64 µM (inactive)
GI50 (HCT-116): 3.16 µM (inactive)
GI50 (HCT-15): 6.11 µM
GI50 (HL-60): 2.16 µM (inactive)
GI50 (HOP-62): 2.56 µM (inactive)
GI50 (HOP-92): 1.77 µM (inactive)
GI50 (HT-29): 4.24 µM (inactive)
GI50 (Hs-578T): 2.6 µM (inactive)
GI50 (IGROV-1): 1.49 µM (inactive)
GI50 (K562): 3.72 µM (inactive)
GI50 (KM12): 3.21 µM (inactive)
GI50 (LOX IMVI): 2.77 µM (inactive)
GI50 (M14): 3.44 µM (inactive)
GI50 (MCF7): 3.65 µM (inactive)
GI50 (MDA-MB-231): 2.75 µM (inactive)
GI50 (MDA-MB-435): 4.35 µM (inactive)
GI50 (MDA-N): 3.65 µM (inactive)
GI50 (MOLT-4): 3.86 µM (inactive)
GI50 (Malme-3M): 3.85 µM (inactive)
GI50 (NCI-H226): 5.58 µM (inactive)
GI50 (NCI-H23): 3.4 µM (inactive)
GI50 (NCI-H460): 3.73 µM (inactive)
GI50 (NCI-H522): 2.18 µM (inactive)
GI50 (NCI/ADR-RES): 30.8 µM (inactive)
GI50 (OVCAR-3): 1.46 µM (inactive)
GI50 (OVCAR-4): 3.09 µM (inactive)
GI50 (OVCAR-5): 4.83 µM (inactive)
GI50 (OVCAR-8): 2.9 µM (inactive)
GI50 (PC-3): 3.18 µM (inactive)
GI50 (RPMI-8226): 2.81 µM (inactive)
GI50 (RXF 393): 5.57 µM (inactive)
GI50 (SF-268): 4.02 µM (inactive)
GI50 (SF-295): 3.67 µM (inactive)
GI50 (SF-539): 2.54 µM (inactive)
GI50 (SK-MEL-28): 3.73 µM (inactive)
GI50 (SK-MEL-2): 3.15 µM (inactive)
GI50 (SK-MEL-5): 2.12 µM (inactive)
GI50 (SK-OV-3): 1.58 µM (inactive)
GI50 (SN12C): 3.13 µM (inactive)
GI50 (SNB-19): 5.09 µM (inactive)
GI50 (SNB-75): 5.28 µM (inactive)
GI50 (SR): 2.34 µM (inactive)
GI50 (SW-620): 4.08 µM (inactive)
GI50 (T47D): 3.1 µM (inactive)
GI50 (TK-10): 10.7 µM (inactive)
GI50 (U-251): 1.87 µM (inactive)
GI50 (UACC-257): 4.36 µM (inactive)
GI50 (UACC-62): 4.7 µM (inactive)
GI50 (UO-31): 2.57 µM (inactive)
